From patent publication US20140186302A1, “Nutritional Formulations and Method for Treating Diseases” (priority 2012, published 2014)

Columns and labels:
retinal lesions [1] = test: Retinal lesion size by retinal photography in subjects having vitreomacular traction (VMT); type: in vivo, human; details: Case 1, lutein (10 mg) every other day, four months
retinal lesions [2] = test: as above; type: in vivo, human
From the text: As used herein, the terms “units of diameter” and units made in reference to lesion size or diameter refer to units of diameter of the posterior pole of an eye, which measures ten units in diameter between the vascular arcades. A lesion can be larger than 19 units.
Diagnosis of vitreomacular traction (VMT): VMT can be symptomatic or asymptomatic. Complaints of reduced or distorted vision may or may not be reported by the subject. Measurement of visual acuity (VA) may or may not be normal or reduced in one or both eyes. Measurement for distortion on an Amsler grid may or may not show distortion in one or both eyes. Retinal photography may show signs of VMT in the original color composite image (e.g., upper left photo in four panel photo of FIG. 1A). Further analysis of the choroid (e.g., upper right photo in four panel photo of FIG. 1A), the retina (e.g., lower left photo in four panel photo of FIG. 1A), and the retinal nerve fibre layer (RNFL) (e.g., lower right photo in four panel photo of FIG. 1A), may reveal puckering, fibrosis, lamellar splitting, partial lamellar holes, pseudo macular holes, bulging and/or edema in the choroid, retinal and/or RNFL images. Further analysis with “3-D” images of the choroid, retina and RNFL layers may show elevations diagnostic of VMT, such as, for example, the presence, severity and/or size of puckering, partial lamellar holes, macular holes, bulging or edema. Further, “3-D” images can be useful for determining which layers of the eye tissue are affected by VMT.
Ocular imaging: retinal photographs were taken using a Canon CR-1 Digital Retinal Camera and analyzed using EyeScape Digital Imaging Software, version 7.5.5.
The settings used for taking retinal photographs were such that optimal contrast and brightness for each subject was achieved. Most retinal photographs were taken with a dilated pupil. Some subjects have naturally very large pupils. In these cases, pupil dilation may not have been required to obtain sufficient images. The Canon CR-1 has a setting for small pupils that was used as required.
Data were collected from 40 subjects having symptomatic VMT over a period of 4.5 years.
Subjects were treated daily with lutein and zeaxanthin as described in table 1.

[3] = Lutein 5 mg, zeaxanthin 0 mg, case 31
[4] = Lutein 18 mg, zeaxanthin 0 mg, case 13
[5] = Lutein 20 mg, zeaxanthin 0 mg, case 2
[6] = Lutein 0 mg, zeaxanthin 1 mg, case 27

| SMILES | ERM OD size after treatment (retinal lesions [1]; from 1.5 units) | OS macular pucker size after treatment (retinal lesions [1]; from 6.5 units) | OD lesion (units) (retinal lesions [2]; [3]) | OS lesion (units) (retinal lesions [2]; [3]) | OD lesion (units) (retinal lesions [2]; [4]) | OS lesion (units) (retinal lesions [2]; [4]) | OD lesion (units) (retinal lesions [2]; [5]) | OS lesion (units) (retinal lesions [2]; [5]) | OD lesion (units) (retinal lesions [2]; [6]) | OS lesion (units) (retinal lesions [2]; [6]) |
| --- | --- | --- | --- | --- | --- | --- | --- | --- | --- | --- |
| CC1=C[C@H](O)CC(C)(C)[C@H]1/C=C/C(C)=C/C=C/C(C)=C/C=C/C=C(C)/C=C/C=C(C)/C=C/C1=C(C)C[C@@H](O)CC1(C)C [lutein] | 0.5 units | 5.0 units | 0 units | 0.5 units | 0 units | 0 units | 0 units | 3 units |  |  |
| CC1=C(/C=C/C(C)=C/C=C/C(C)=C/C=C/C=C(C)/C=C/C=C(C)/C=C/C2=C(C)C[C@@H](O)CC2(C)C)C(C)(C)C[C@H](O)C1 [zeaxanthin] |  |  |  |  |  |  |  |  | 0.5 units | 0.5 units |
